Measurements taken from US20160009693A1, “HERBICIDAL COMPOUNDS” (SYNGENTA LIMITED, priority 2013, published 2016).

Key:
Type in all cases: in vivo
Conditions in all cases: applied at 1000 g/h, evaluated after 13 days
[1] = tested on: Amaranthus retoflexus (AMARE); experiment: Herbicidal glasshouse test, pre-emergence, AMARE
In short: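 Amaranthus retoflexus seeds were sown in pots of standard soil and kept one day in a glasshouse at 24/16° C. (day/night), 14 hours light and 65% humidity. They were then sprayed pre-emergence with the active ingredient in acetone/water (50:50) containing 0.5% Tween 20. Plants grew under the same conditions, watered twice daily, and percentage damage was scored after 13 days.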

[2] = tested on: Amaranthus retoflexus (AMARE); experiment: Herbicidal glasshouse test, post-emergence, AMARE
In short: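 Amaranthus retoflexus (AMARE) seeds were sown in pots of standard soil and grown in a glasshouse at 24/16° C. day/night, 14 hours light and 65% humidity for 8 days. The plants were then sprayed post-emergence with an aqueous solution of the active ingredient in acetone/water (50:50) with 0.5% Tween 20. Damage was scored after 13 days.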

[3] = tested on: Alopecurus myosuroides (ALOMY); experiment: Herbicidal glasshouse test, post-emergence, ALOMY
[4] = tested on: Alopecurus myosuroides (ALOMY); experiment: Herbicidal glasshouse test, pre-emergence, ALOMY
[5] = tested on: Ipomoea hederacea (IPOHE); experiment: Herbicidal glasshouse test, post-emergence, IPOHE
[6] = tested on: Echinochloa crus-galli (ECHCG); experiment: Herbicidal glasshouse test, pre-emergence, ECHCG
In short: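 Echinochloa crus-galli seeds were sown in standard soil in pots and grown for one day in a glasshouse at 24/16° C. day/night, 14 hours light and 65% humidity. Pre-emergence spraying used an aqueous solution of the active ingredient in acetone/water (50:50) with 0.5% Tween 20. Damage was scored after 13 days on a five point scale.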

Solanum nigrum (SOLNI) [7] = experiment: Herbicidal glasshouse test, post-emergence, SOLNI
Setaria faberi (SETFA) [8] = experiment: Herbicidal glasshouse test, post-emergence, SETFA
In short: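 Setaria faberi seeds were sown in standard soil in pots and grown for 8 days in a glasshouse at 24/16° C. day/night, 14 hours light and 65% humidity. The seedlings were then sprayed post-emergence with the active ingredient in acetone/water (50:50) containing 0.5% Tween 20. Afterwards they were kept under the same conditions, watered twice daily, and scored for percentage damage on a five point scale.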

Setaria faberi (SETFA) [9] = experiment: Herbicidal glasshouse test, pre-emergence, SETFA
Solanum nigrum (SOLNI) [10] = experiment: Herbicidal glasshouse test, pre-emergence, SOLNI
In short: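 Seeds of Solanum nigrum were sown in pots of standard soil and kept one day in a glasshouse at 24/16° C. day/night, 14 hours light and 65% humidity. For the pre-emergence treatment they were then sprayed with an aqueous solution of the active ingredient formulated in acetone/water (50:50) containing 0.5% Tween 20. Plant damage was rated after 13 days.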

[11] = tested on: Ipomoea hederacea (IPOHE); experiment: Herbicidal glasshouse test, pre-emergence, IPOHE
[12] = tested on: Echinochloa crus-galli (ECHCG); experiment: Herbicidal glasshouse test, post-emergence, ECHCG
In short: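 Echinochloa crus-galli (ECHCG) seeds were sown in standard soil in pots and grown for 8 days in a glasshouse at 24/16° C. day/night, 14 hours light and 65% humidity. The young plants were then sprayed post-emergence with the active ingredient in acetone / water (50:50) containing 0.5% Tween 20. Damage was scored after 13 days.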

| SMILES | PRE Application AMARE, percentage damage (five point scale) [1] | POST Application AMARE, percentage damage (five point scale) [2] | POST Application ALOMY, percentage damage (five point scale) [3] | PRE Application ALOMY, percentage damage (five point scale) [4] | POST Application IPOHE, percentage damage (five point scale) [5] | PRE Application ECHCG, percentage damage (five point scale) [6] | POST Application SOLNI, percentage damage (five point scale) (Solanum nigrum (SOLNI) [7]) | POST Application SETFA, percentage damage (five point scale) (Setaria faberi (SETFA) [8]) | PRE Application SETFA, percentage damage (five point scale) (Setaria faberi (SETFA) [9]) | PRE Application SOLNI, percentage damage (five point scale) (Solanum nigrum (SOLNI) [10]) | PRE Application IPOHE, percentage damage (five point scale) [11] | POST Application ECHCG, percentage damage (five point scale) [12] |
| --- | --- | --- | --- | --- | --- | --- | --- | --- | --- | --- | --- | --- |
| Cn1nnnc1NC(=O)c1nn(C)c(=O)n(-c2cccc(C(F)(F)F)c2)c1=O [Compound 1.028] | 5 (5=80-100%) | 5 (5=80-100%) | 5 (5=80-100%) | 5 (5=80-100%) | 5 (5=80-100%) | 5 (5=80-100%) | 5 (5=80-100%) | 5 (5=80-100%) | 5 (5=80-100%) | 5 (5=80-100%) | 5 (5=80-100%) | 5 (5=80-100%) |
| Cn1nnnc1NC(=O)c1nn(C)c(=O)n(-c2ccc(OC(F)(F)F)c(F)c2)c1=O [Compound 1.029] | 5 (5=80-100%) | 5 (5=80-100%) | 5 (5=80-100%) | 5 (5=80-100%) | 5 (5=80-100%) | 5 (5=80-100%) | 5 (5=80-100%) | 5 (5=80-100%) | 5 (5=80-100%) | 5 (5=80-100%) | 5 (5=80-100%) | 5 (5=80-100%) |
| Cn1nnnc1NC(=O)c1nn(C)c(=O)n(-c2ccc([N+](=O)[O-])cc2)c1=O [Compound 1.031] | 5 (5=80-100%) | 5 (5=80-100%) | 4 (4=60-79%) | 3 (3=40-59%) | 2 (2=20-39%) | 4 (4=60-79%) | 5 (5=80-100%) | 5 (5=80-100%) | 4 (4=60-79%) | 5 (5=80-100%) | 4 (4=60-79%) | 5 (5=80-100%) |
| Cn1nnnc1NC(=O)c1nn(C)c(=O)n(-c2cc(C(F)(F)F)cc(C(F)(F)F)c2)c1=O [Compound 1.032] | 5 (5=80-100%) | 5 (5=80-100%) | 5 (5=80-100%) | 5 (5=80-100%) | 5 (5=80-100%) | 5 (5=80-100%) | 5 (5=80-100%) | 4 (4=60-79%) | 5 (5=80-100%) | 5 (5=80-100%) | 4 (4=60-79%) | 5 (5=80-100%) |
